From patent US20220313780A1, “METHODS AND COMPOSITIONS FOR TREATING INFLAMMATORY CONDITIONS” (THE SCRIPPS RESEARCH INSTITUTE, priority 2019, published 2022)

Tested on: IL-1β
Assay: IL-1β release (Quantikine ELISA) from THP1 cells treated with LPS and ATP
Type: cell-based, human
Details: APC 4 μg/mL, TR47 50 μM, P3R 50 μM or TR47/P3R 8 nM & 500 nM for 1 hour before LPS and ATP
Procedure: THP1 cells were plated at a final concentration of 1×10^6/mL in 96 well plates and incubated with PMA (0.5 μM) for 3 hours 37° C. in supplemented RPMI. Media was subsequently changed every 24 hours for 3 days. Selected wells were treated with APC (4 μg/mL), TR47 (50 μM), P3R (50 μM), or TR47/P3R (8 nM & 500 nM, respectively) for 1 hour, washed with DPBS, and incubated with LPS (1 μg/mL) for 3 hours at 37° C. in serum-free RPMI. Cells were washed with DPBS and incubated with ATP (5 mM) in the presence or absence of 10 μM YVAD (caspase 1 inhibitor) for 45 minutes, and the resulting cell supernatant was used in the IL-1(3 Quantikine ELISA following manufacturer's (R&D) directions measuring absorbance, and the concentration of IL-1(3 was calculated following measurement of the standard curve. Data points represent mean±SEM of at least 3 independent experiments. *P<0.05 (vs. LPS+ATP).
[…]. THP1 cells were plated at a final concentration of 1×10^6/mL in 96 well plates and incubated with PMA (0.5 μM) for 3 hours 37° C. in supplemented RPMI. […] Cell supernatants were carefully collected and frozen until assayed using the IL-1β Quantikine ELISA following the manufacturer's (R&D Systems) directions, measuring absorbance. The concentration of IL-1β was calculated following measurement of the standard curve according to the manufacturer's directions.

Sequence | generation and release of IL-1β
GAPPNSFEEFPFSALEGWTGATIT [P3R, PAR3-derived 24-mer peptide] | significantly suppressed
NPNDKYEPFWEDEEKNESGL [TR47, PAR1-derived 20 amino acid peptide] | significantly suppressed
